Patent US20060189602A1, “Pyridazinone compounds” (Anadys Pharmaceuticals, Inc., priority 2004, published 2006)

Molecular target: HCV NS5B polymerase (Hepatitis C virus genotype 1b, UniProt P26663)
Assay: NS5B Polymerase Inhibition Assay
Format: biochemical
Settings: 50 nM enzyme, [α-33P]GTP, oligo (rG13)/poly rC, 75 min at 28° C.
Description: NS5B Polymerase Inhibition Assay
Compounds were tested for HCV polymerase inhibition. Assays were performed in a 96-well streptavidin-coated FlashPlate using 50 nM enzyme, 0.5 μCi of [α-^33P]GTP, 0.63 μM GTP, and 250 nM 5′biotinylated oligo (rG13)/poly rC in 20 mM Tris-HCl, pH 7.5, 5 mM MgCl2, 20 mM NaCl, 5 mM dithiothreitol, and 0.1 g/L BSA. The reaction was stopped by aspiration after 75 min at 28° C. and the plate was washed several times. After washing, incorporated radioactivity was counted using a Microbeta scintillation counter.

Sequence of HCV NS5B polymerase (P26663 2420-3010): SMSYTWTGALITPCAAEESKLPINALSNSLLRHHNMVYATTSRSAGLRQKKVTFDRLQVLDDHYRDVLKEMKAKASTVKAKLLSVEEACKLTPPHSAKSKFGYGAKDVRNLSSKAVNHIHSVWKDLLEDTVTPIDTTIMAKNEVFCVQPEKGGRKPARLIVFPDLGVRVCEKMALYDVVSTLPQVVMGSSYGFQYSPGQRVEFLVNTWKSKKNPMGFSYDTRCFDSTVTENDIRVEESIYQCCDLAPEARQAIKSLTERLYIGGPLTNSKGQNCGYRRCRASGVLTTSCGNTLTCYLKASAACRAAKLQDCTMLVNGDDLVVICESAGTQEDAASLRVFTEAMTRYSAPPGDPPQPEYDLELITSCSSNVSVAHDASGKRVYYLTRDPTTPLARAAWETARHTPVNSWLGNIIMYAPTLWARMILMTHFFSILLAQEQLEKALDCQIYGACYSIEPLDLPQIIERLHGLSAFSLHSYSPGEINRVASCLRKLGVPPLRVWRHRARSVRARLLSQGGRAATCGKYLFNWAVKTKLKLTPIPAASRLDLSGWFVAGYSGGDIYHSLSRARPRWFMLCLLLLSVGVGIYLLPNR

Row | Structure (SMILES) | IC50
1 | COc1ccc2c(c1)S(=O)(=O)NC(c1c(O)c(-c3cccs3)nn(CCC3CC3)c1=O)=N2 [Compound 3, 2-(2-Cyclopropyl-ethyl)-5-hydroxy-4-(7-methoxy-1,1-dioxo-1,2-di-hydro-1λ^6-benzo[1,2,4]thiadiazin-3-yl)-6-thiophen-2-yl-2H-py-ridazin-3-one] | < 10 µM
2 | COc1ccc2c(c1)S(=O)(=O)NC(c1c(O)c(-c3cccs3)nn(Cc3ccccc3)c1=O)=N2 [Compound 5, 2-Benzyl-5-hydroxy-4-(7-methoxy-1,1-dioxo-1,2-dihydro-1λ^6-ben-zo[1,2,4]thiadiazin-3-yl)-6-thiophen-2-yl-2H-py-ridazin-3-one] | 10 to 50 µM
3 | O=c1c(C2=Nc3ccc(O)cc3S(=O)(=O)N2)c(O)c(-c2cccs2)nn1Cc1ccccc1 [Compound 6, 2-Benzyl-5-hydroxy-4-(7-hydroxy-1,1-dioxo-1,2-dihydro-1λ^6-ben-zo[1,2,4]thiadiazin-3-yl)-6-thiophen-2-yl-2H-pyridazin-3-one] | < 10 µM
4 | O=c1c(C2=Nc3ccc(O)cc3S(=O)(=O)N2)c(O)c(-c2cccs2)nn1CCC1CC1 [Compound 7, 2-(2-Cyclopropyl-ethyl)-5-hydroxy-4-(7-hydroxy-1,1-dioxo-1,2-di-hydro-1λ^6-benzo[1,2,4]thiadiazin-3-yl)-6-thiophen-2-yl-2H-py-ridazin-3-one] | < 10 µM
5 | CCCCn1nc(C(C)C)c(O)c(C2=Nc3ccc(O)cc3S(=O)(=O)N2)c1=O [Compound 11, 2-Butyl-5-hydroxy-4-(7-hydroxy-1,1-dioxo-1,2-dihydro-1λ^6-ben-zo[1,2,4]thiadiazin-3-yl)-6-isopropyl-2H-pyridazin-3-one] | < 10 µM
6 | CCCCn1nc(C(C)C)c(O)c(C2=Nc3ccc(OCC(N)=O)cc3S(=O)(=O)N2)c1=O [Compound 12, 2-[3-(2-Butyl-5-hydroxy-6-isopropyl-3-oxo-2,3-dihydro-py-ridazin-4-yl)-1,1-dioxo-1,2-dihdyro-1λ^6-ben-zo[1,2,4]thiadiazin-7-yloxy]-actamide] | < 10 µM
7 | CCCCn1nc(C(C)(C)CO)c(O)c(C2=Nc3ccc(OC)cc3S(=O)(=O)N2)c1=O [Compound 14, 2-Butyl-5-hydroxy-6-(2-hydroxy-1,1-dimethyl-ethyl)-4-(7-meth-oxy-1,1-dioxo-1,2-dihydro-1λ^6-benzo[1,2,4]thiadiazin-3-yl)-2H-py-ridazin-3-one] | 10 to 50 µM
8 | CCCCn1nc(-c2ccccc2)c(O)c(C2=Nc3ccc(OC)cc3S(=O)(=O)N2)c1=O [Compound 15, 2-Butyl-5-hydroxy-4-(7-methoxy-1,1-dioxo-1,2-dihydro-1λ^6-ben-zo[1,2,4]thiadiazin-3-yl)-6-phenyl-2H-pyridazin-3-one] | 10 to 50 µM
9 | CCCCn1nc(-c2cccs2)c(O)c(C2=Nc3ccc(OC)cc3S(=O)(=O)N2)c1=O [Compound 17, 2-Butyl-5-hydroxy-4-(7-methoxy-1,1-dioxo-1,2-dihydro-1λ^6-ben-zo[1,2,4]thiadiazin-3-yl)-6-thiophen-2-yl-2H-pyridazin-3-one] | < 10 µM
10 | O=c1c(C2=Nc3ccc(O)cc3S(=O)(=O)N2)c(O)c(-c2cccs2)nn1Cc1c(F)cccc1Cl [Compound 19, 2-(2-Chloro-6-fluoro-benzyl)-5-hydroxy-4-(7-hydroxy-1,1-di-oxo-1,2-dihydro-1λ^6-benzo[1,2,4]thiadiazin-3-yl)-6-thio-phen-2-yl-2H-pyridazin-3-one] | 10 to 50 µM
11 | CC(C)CCn1nc(-c2cccs2)c(O)c(C2=Nc3ccc(OCC(=O)N4CCC(N)C4)cc3S(=O)(=O)N2)c1=O (stereo not shown) [Compound 21, 4-{7-[2-(3-Amino-pyrrolidin-1-yl)-2-oxo-ethoxy]-1,1-dioxo-1,2-di-hydro-1λ^6-benzo[1,2,4]thiadiazin-3-yl}-5-hydroxy-2-(3-methyl-butyl)-6-thiophen-2-yl-2H-pyridazin-3-one] | < 10 µM
12 | CC(C)CCn1nc(-c2cccs2)c(O)c(C2=Nc3ccncc3S(=O)(=O)N2)c1=O [Compound 30, 4-(1,1-Dioxo-1,2-dihydro-1λ^6-pyrido[4,3-e][1,2,4]thiadiazin-3-yl)-5-hy-droxy-2-(3-methyl-butyl)-6-thiophen-2-yl-2H-py-ridazin-3-one] | < 10 µM
13 | CCCCn1nc(CCC(C)C)c(O)c(C2=Nc3ccc(OC)cc3S(=O)(=O)N2)c1=O [Compound 34, 2-Butyl-5-hydroxy-4-(7-methoxy-1,1-dioxo-1,2-dihydro-1λ^6-ben-zo[1,2,4]thiadiazin-3-yl)-6-(3-methyl-butyl)-2H-pyridazin-3-one] | < 10 µM

The remaining lines, values ahead:

Row | IC50 | Structure (SMILES)
14 | 10 to 50 µM | COc1ccc2c(c1)S(=O)(=O)NC(c1c(O)c(-c3ccc(C)s3)nn(CCC(C)C)c1=O)=N2 [Compound 9, 5-Hydroxy-4-(7-methoxy-1,1-dioxo-1,2-dihydro-1λ^6-ben-zo[1,2,4]thiadiazin-3-yl)-2-(3-methyl-butyl)-6-(5-methyl-thio-phen-2-yl)-2H-pyridazin-3-one]
15 | 10 to 50 µM | CCCCn1nc(C(C)C)c(O)c(C2=Nc3ccc(OC)cc3S(=O)(=O)N2)c1=O [Compound 10, 2-Butyl-5-hydroxy-6-isopropyl-4-(7-methoxy-1,1-dioxo-1,2-di-hydro-1λ^6-benzo[1,2,4]thiadiazin-3-yl)-2H-pyridazin-3-one]
16 | 10 to 50 µM | COc1ccc2c(c1)S(=O)(=O)NC(c1c(O)c(C(C)C)nn(CCC(C)C)c1=O)=N2 [Compound 26, 5-Hydroxy-6-isopropyl-4-(7-methoxy-1,1-dioxo-1,2-dihydro-1λ^6-ben-zo[1,2,4]thiadiazin-3-yl)-2-(3-methyl-butyl)-2H-py-ridazin-3-one]
17 | 10 to 50 µM | CC(C)CCn1nc(C(C)C)c(O)c(C2=Nc3ccccc3S(=O)(=O)N2)c1=O [Compound 27, 4-(1,1-Dioxo-1,2-dihydro-1λ^6-benzo[1,2,4]thiadiazin-3-yl)-5-hy-droxy-6-isopropyl-2-(3-methyl-butyl)-2H-pyridazin-3-one]
18 | 10 to 50 µM | COc1ccc2c(c1)S(=O)(=O)NC(c1c(O)c(-c3cccn3C)nn(CCC(C)C)c1=O)=N2 [Compound 28, 5-Hydroxy-4-(7-methoxy-1,1-dioxo-1,2-dihydro-1λ^6-ben-zo[1,2,4]thiadiazin-3-yl)-2-(3-methyl-butyl)-6-(1-methyl-1H-pyr-rol-2-yl)-2H-pyridazin-3-one]
19 | 10 to 50 µM | CC(C)CCn1nc(C(C)C)c(O)c(C2=Nc3ccc(O)cc3S(=O)(=O)N2)c1=O [Compound 29, 5-Hydroxy-4-(7-hydroxy-1,1-dioxo-1,2-dihydro-1λ^6-ben-zo[1,2,4]thiadiazin-3-yl)-6-isopropyl-2-(3-methyl-butyl)-2H-py-ridazin-3-one]
20 | < 10 µM | COc1ccc2c(c1)S(=O)(=O)NC(c1c(O)c(-c3ccco3)nn(CCC(C)C)c1=O)=N2 [Compound 32, 6-Furan-2-yl-5-hydroxy-4-(7-methoxy-1,1-dioxo-1,2-dihydro-1λ^6-ben-zo[1,2,4]thiadiazin-3-yl)-2-(3-methyl-butyl)-2H-py-ridazin-3-one]
21 | < 10 µM | CC(C)CCn1nc(C(C)C)c(O)c(C2=Nc3ccc(OCC(N)=O)cc3S(=O)(=O)N2)c1=O [Compound 33, 2-{3-[5-Hydroxy-6-isopropyl-2-(3-methyl-butyl)-3-oxo-2,3-di-hydro-pyridazin-4-yl]-1,1-dioxo-1,2-dihydro-1λ^6-ben-zo[1,2,4]thiadiazin-7-yloxy}-acetamide]
22 | < 10 µM | CCCCc1nn(CCC(C)C)c(=O)c(C2=Nc3ccc(OC)cc3S(=O)(=O)N2)c1O [Compound 35, 6-Butyl-5-hydroxy-4-(7-methoxy-1,1-dioxo-1,2-dihdyro-1λ^6-ben-zo[1,2,4]thiadiazin-3-yl)-2-(3-methyl-butyl)-2H-pyridazin-3-one]
